Values of other authors as cited in patent publication US20240082153A1, “IVERMECTIN FORMULATION IN ORAL SOLUTION” (PROCAPS S.A., priority 2020, published 2024).

Assays:
[1] = tested on: SARS-CoV-2; details: in vitro, after 48 hours

## Ivermectin
other
  solubility in water: practically insoluble in water
[1]
  reduction in viral RNA: approximately 5,000 fold
